US12187723B2 (BRISTOL-MYERS SQUIBB COMPANY, priority 2019, dated 2025)

Legend:
human TLR9 = molecular target: T1, human TLR9 (Homo sapiens, UniProt Q9NR96); test: TLR9 inhibition reporter assay (HEK-Blue SEAP); type: cell-based; details: HEK-Blue cells overexpressing human TLR9, ODN2006 5 nM, 22 hour incubation
T1 construct: host or cells: HEK-Blue cells
T1 sequence (Q9NR96 26-1032): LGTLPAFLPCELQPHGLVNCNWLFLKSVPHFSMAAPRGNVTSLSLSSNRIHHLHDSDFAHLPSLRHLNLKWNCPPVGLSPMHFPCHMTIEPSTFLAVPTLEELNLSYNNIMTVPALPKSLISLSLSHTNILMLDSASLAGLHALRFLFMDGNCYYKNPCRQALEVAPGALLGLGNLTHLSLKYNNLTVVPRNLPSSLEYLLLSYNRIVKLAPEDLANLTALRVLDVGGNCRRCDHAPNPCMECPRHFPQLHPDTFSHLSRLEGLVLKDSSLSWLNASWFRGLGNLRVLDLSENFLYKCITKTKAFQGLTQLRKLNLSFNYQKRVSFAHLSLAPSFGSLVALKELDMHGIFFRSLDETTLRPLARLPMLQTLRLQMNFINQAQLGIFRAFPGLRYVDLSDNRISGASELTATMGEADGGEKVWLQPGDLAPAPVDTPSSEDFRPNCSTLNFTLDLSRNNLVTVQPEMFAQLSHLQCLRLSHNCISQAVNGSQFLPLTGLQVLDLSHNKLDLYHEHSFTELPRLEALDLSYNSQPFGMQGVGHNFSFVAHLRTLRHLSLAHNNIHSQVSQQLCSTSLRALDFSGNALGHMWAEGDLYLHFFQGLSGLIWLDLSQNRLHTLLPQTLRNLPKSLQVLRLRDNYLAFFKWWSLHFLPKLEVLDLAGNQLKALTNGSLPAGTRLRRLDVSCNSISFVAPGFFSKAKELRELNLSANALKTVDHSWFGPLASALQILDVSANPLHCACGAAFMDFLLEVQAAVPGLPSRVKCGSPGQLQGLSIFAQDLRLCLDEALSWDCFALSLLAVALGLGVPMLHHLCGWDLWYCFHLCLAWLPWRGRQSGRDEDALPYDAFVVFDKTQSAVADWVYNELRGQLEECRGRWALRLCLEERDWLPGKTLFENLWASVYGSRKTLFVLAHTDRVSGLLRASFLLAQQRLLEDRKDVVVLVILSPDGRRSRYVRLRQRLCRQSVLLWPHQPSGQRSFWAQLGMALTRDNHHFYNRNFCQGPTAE
In short: (§1)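 HEK-Blue cells overexpressing human TLR7, TLR8 or TLR9 carry a SEAP reporter driven by NF-κB/AP-1 sites. Compounds (0.05 nM–50 μM) were preincubated 30 min at room temperature, then cells were stimulated with gardiquimod 7.5 μM (TLR7), R848 15.9 μM (TLR8) or ODN2006 5 nM (TLR9) for 22 h at 37 °C.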

human TLR8 = molecular target: T2, human TLR8 (Homo sapiens, UniProt Q9NR97); test: TLR8 inhibition reporter assay (HEK-Blue SEAP); type: cell-based; details: HEK-Blue cells overexpressing human TLR8, R848 15.9 μM, 22 hour incubation
T2 construct: host or cells: HEK-Blue cells
T2 sequence (Q9NR97 27-1041): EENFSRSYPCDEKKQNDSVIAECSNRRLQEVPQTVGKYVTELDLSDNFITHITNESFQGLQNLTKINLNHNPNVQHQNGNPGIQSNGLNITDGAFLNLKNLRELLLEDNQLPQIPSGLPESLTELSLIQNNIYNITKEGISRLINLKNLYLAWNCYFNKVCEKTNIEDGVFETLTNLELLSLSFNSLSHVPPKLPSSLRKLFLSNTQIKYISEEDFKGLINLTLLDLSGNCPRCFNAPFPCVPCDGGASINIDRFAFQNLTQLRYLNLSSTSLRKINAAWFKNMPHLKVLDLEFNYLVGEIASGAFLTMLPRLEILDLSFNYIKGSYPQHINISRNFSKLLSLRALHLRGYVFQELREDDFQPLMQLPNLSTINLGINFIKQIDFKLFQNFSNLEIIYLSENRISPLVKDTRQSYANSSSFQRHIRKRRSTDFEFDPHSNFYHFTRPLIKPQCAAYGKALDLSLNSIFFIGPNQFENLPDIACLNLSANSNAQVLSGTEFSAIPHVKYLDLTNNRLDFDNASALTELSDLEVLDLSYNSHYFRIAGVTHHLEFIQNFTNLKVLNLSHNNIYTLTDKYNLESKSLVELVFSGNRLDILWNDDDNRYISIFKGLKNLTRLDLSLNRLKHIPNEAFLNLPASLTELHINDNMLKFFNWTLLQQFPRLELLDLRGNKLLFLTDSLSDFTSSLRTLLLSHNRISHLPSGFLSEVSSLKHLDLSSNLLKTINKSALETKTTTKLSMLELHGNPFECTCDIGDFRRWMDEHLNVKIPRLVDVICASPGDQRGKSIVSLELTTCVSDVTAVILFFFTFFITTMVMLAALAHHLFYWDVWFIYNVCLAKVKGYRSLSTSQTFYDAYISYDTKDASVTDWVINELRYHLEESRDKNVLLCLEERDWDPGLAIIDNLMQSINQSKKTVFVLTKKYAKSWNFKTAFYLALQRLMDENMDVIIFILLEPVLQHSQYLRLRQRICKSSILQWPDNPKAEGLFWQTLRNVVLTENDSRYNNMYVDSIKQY
In short: as §1

Structure (SMILES)	IC50 (human TLR9)	IC50 (human TLR8)
CCN[C@H]1CC[C@H](n2c(=O)[nH]c3cc(-c4cc(C)c5ncnn5c4)c(C)cc32)CC1 [Example 24, 1-((1r,4s)-4-(ethylamino)cyclohexyl)-6-methyl-5-(8-methyl-[1,2,4]triazolo[1,5-a]pyridin-6-yl)-1,3-dihydro-2H-benzo[d]imidazol-2-one]	1580 nM	6.74 nM
Cc1cc2c(cc1-c1cc(C)c3ncnn3c1)[nH]c(=O)n2[C@H]1CC[C@H](NC(C)C)CC1 [Example 25, 1-((1r,4s)-4-(isopropylamino)cyclohexyl)-6-methyl-5-(8-methyl-[1,2,4]triazolo[1,5-a]pyridin-6-yl)-1,3-dihydro-2H-benzo[d]imidazol-2-one]	4350 nM	11.1 nM
Cc1cc2c(cc1-c1cc(C)c3ncnn3c1)[nH]c(=O)n2[C@@H]1CCCN(CC(C)(C)C)C1 [Example 26, (R)-6-methyl-5-(8-methyl-[1,2,4]triazolo[1,5-a]pyridin-6-yl)-1-(1-neopentylpiperidin-3-yl)-1,3-dihydro-2H-benzo[d]imidazol-2-one]	6720 nM	384 nM
Cc1cc2c(cc1-c1cc(C)c3ncnn3c1)[nH]c(=O)n2[C@@H]1CCCN(C2CCOCC2)C1 [Example 27, (R)-6-methyl-5-(8-methyl-[1,2,4]triazolo[1,5-a]pyridin-6-yl)-1-(1-(tetrahydro-2H-pyran-4-yl)piperidin-3-yl)-1,3-dihydro-2H-benzo[d]imidazol-2-one]	8500 nM	50 nM
CCC(C)N1CCC[C@@H](n2c(=O)[nH]c3cc(-c4cc(C)c5ncnn5c4)c(C)cc32)C1 (stereo partly drawn) [Example 28, 1-((3R)-1-(sec-butyl)piperidin-3-yl)-6-methyl-5-(8-methyl-[1,2,4]triazolo[1,5-a]pyridin-6-yl)-1,3-dihydro-2H-benzo[d]imidazol-2-one]	10800 nM	22.5 nM
Cc1cc2c(cc1-c1cc(C)c3ncnn3c1)[nH]c(=O)n2[C@@H]1CCCN(CCC(F)(F)F)C1 [Example 29, (R)-6-methyl-5-(8-methyl-[1,2,4]triazolo[1,5-a]pyridin-6-yl)-1-(1-(3,3,3-trifluoropropyl)piperidin-3-yl)-1,3-dihydro-2H-benzo[d]imidazol-2-one]	> 50000 nM	49.5 nM
Cc1cc2c(cc1-c1cc(C)c3ncnn3c1)[nH]c(=O)n2[C@H]1CC[C@@H](NC2CCOCC2)CC1 [Example 30, 6-methyl-5-(8-methyl-[1,2,4]triazolo[1,5-a]pyridin-6-yl)-1-((1s,4s)-4-((tetrahydro-2H-pyran-4-yl)amino)cyclohexyl)-1,3-dihydro-2H-benzo[d]imidazol-2-one]	4490 nM	3.12 nM
Cc1cc2c(cc1-c1cc(C)c3ncnn3c1)[nH]c(=O)n2[C@H]1CC[C@@H](NCCC(F)(F)F)CC1 [Example 31]	2960 nM	1.32 nM
COc1cc(-c2cc3[nH]c(=O)n(C4CCC(N5CCSCC5)CC4)c3cc2C(C)C)cn2ncnc12 (centres unmarked) [Example 250, 6-isopropyl-5-(8-methoxy-[1,2,4]triazolo[1,5-a]pyridin-6-yl)-1-(4-thiomorpholinocyclohexyl)-1,3-dihydro-2H-benzo[d]imidazol-2-one]	7250 nM	0.36 nM
COc1cc(-c2cc3[nH]c(=O)n(C4CCC(N5CCSCC5)CC4)c3cc2C(C)C)cn2ncnc12 (centres unmarked) [Example 251, 6-isopropyl-5-(8-methoxy-[1,2,4]triazolo[1,5-a]pyridin-6-yl)-1-(4-thiomorpholinocyclohexyl)-1,3-dihydro-2H-benzo[d]imidazol-2-one]	11900 nM	0.95 nM
COc1cc(-c2cc3[nH]c(=O)n(C4CCC(N5CC6(COC6)C5)CC4)c3cc2C(C)C)cn2ncnc12 (centres unmarked) [Example 254, 1-(4-(2-oxa-6-azaspiro[3.3]heptan-6-yl)cyclohexyl)-6-isopropyl-5-(8-methoxy-[1,2,4]triazolo[1,5-a]pyridin-6-yl)-1,3-dihydro-2H-benzo[d]imidazol-2-one]	14100 nM	3.38 nM
COCCNC1CCC(n2c(=O)[nH]c3cc(-c4cn5ncnc5c(OC)c4C)c(C(C)C)cc32)CC1 (centres unmarked) [Example 257]	23300 nM	1.38 nM
COCCNC1CCC(n2c(=O)[nH]c3cc(-c4cn5ncnc5c(OC)c4C)c(C(C)C)cc32)CC1 (centres unmarked) [Example 258]	24300 nM	0.6 nM
COc1c(C)c(-c2cc3[nH]c(=O)n(C4CCC(N5CC(OC)C5)CC4)c3cc2C(C)C)cn2ncnc12 (centres unmarked) [Example 265, 6-isopropyl-5-(8-methoxy-7-methyl-[1,2,4]triazolo[1,5-a]pyridin-6-yl)-1-(4-(3-methoxyazetidin-1-yl)cyclohexyl)-1,3-dihydro-2H-benzo[d]imidazol-2-one]	19100 nM	2.72 nM
COc1c(C)c(-c2cc3[nH]c(=O)n(C4CCC(N5CC(OC)C5)CC4)c3cc2C(C)C)cn2ncnc12 (centres unmarked) [Example 266, 6-isopropyl-5-(8-methoxy-7-methyl-[1,2,4]triazolo[1,5-a]pyridin-6-yl)-1-(4-(3-methoxyazetidin-1-yl)cyclohexyl)-1,3-dihydro-2H-benzo[d]imidazol-2-one]	23000 nM	4.47 nM
Cc1c(-c2cc3[nH]c(=O)n(C4CCC(N5CCCOCC5)CC4)c3cc2C(C)C)cn2ncnc2c1C (centres unmarked) [Example 271, 1-(4-(1,4-oxazepan-4-yl)cyclohexyl)-5-(7,8-dimethyl-[1,2,4]triazolo[1,5-a]pyridin-6-yl)-6-isopropyl-1,3-dihydro-2H-benzo[d]imidazol-2-one]	8160 nM	0.36 nM
Cc1c(-c2cc3[nH]c(=O)n(C4CCC(N5CCCOCC5)CC4)c3cc2C(C)C)cn2ncnc2c1C (centres unmarked) [Example 272, 1-(4-(1,4-oxazepan-4-yl)cyclohexyl)-5-(7,8-dimethyl-[1,2,4]triazolo[1,5-a]pyridin-6-yl)-6-isopropyl-1,3-dihydro-2H-benzo[d]imidazol-2-one]	6750 nM	0.49 nM
Cc1c(-c2cc3[nH]c(=O)n(C4CCC(N5CCCC(F)C5)CC4)c3cc2C(C)C)cn2ncnc2c1C (centres unmarked) [Example 273, 5-(7,8-dimethyl-[1,2,4]triazolo[1,5-a]pyridin-6-yl)-1-(4-(3-fluoropiperidin-1-yl)cyclohexyl)-6-isopropyl-1,3-dihydro-2H-benzo[d]imidazol-2-one]	13500 nM	0.87 nM
Cc1c(-c2cc3[nH]c(=O)n(C4CCC(N5CCCC(F)C5)CC4)c3cc2C(C)C)cn2ncnc2c1C (centres unmarked) [Example 274, 5-(7,8-dimethyl-[1,2,4]triazolo[1,5-a]pyridin-6-yl)-1-(4-(3-fluoropiperidin-1-yl)cyclohexyl)-6-isopropyl-1,3-dihydro-2H-benzo[d]imidazol-2-one]	16800 nM	1.09 nM
